Data: the supplement of paper PMC10307832

Assays:
Test in all cases: relative viability (nuclei count vs DMSO), 5 days (fraction); higher = more cells survive
[1] = compound: CCN(CC)CCNC(=O)c1c(C)[nH]c(/C=C2\C(=O)Nc3ccc(F)cc32)c1C [Sunitinib] + Nc1ncn([C@H]2C[C@H](O)[C@@H](CO)O2)c(=O)n1 [Decitabine] (partner 2 µM)
Procedure, shortened: (§1)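 Five library-drug doses in √10 steps were combined with a fixed anchor-drug dose, or a single drug was given alone, by pin tool to lung cancer cell lines in 1536-well plates the day after seeding. Nuclei were stained and counted after 5 days. Relative viability is the nuclei count in treated wells over that in vehicle wells, taken as the median of duplicate plates.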

[2] = compound: CCN(CC)CCNC(=O)c1c(C)[nH]c(/C=C2\C(=O)Nc3ccc(F)cc32)c1C [Sunitinib] + Cc1nc(NC(=O)N2CCC[C@H]2C(N)=O)sc1-c1ccnc(C(C)(C)C(F)(F)F)c1 [Alpelisib] (partner 2 µM)
Procedure, shortened: as §1

[3] = compound: CCN(CC)CCNC(=O)c1c(C)[nH]c(/C=C2\C(=O)Nc3ccc(F)cc32)c1C [Sunitinib] + C[C@]1(O)C[C@@H](c2nc(-c3ccc4ccc(-c5ccccc5)nc4c3)c3c(N)nccn32)C1 [Linsitinib] (partner 1 µM)
Procedure, shortened: as §1

[4] = compound: CCN(CC)CCNC(=O)c1c(C)[nH]c(/C=C2\C(=O)Nc3ccc(F)cc32)c1C [Sunitinib] + CS(=O)(=O)N1CCN(Cc2cc3nc(-c4cccc5[nH]ncc45)nc(N4CCOCC4)c3s2)CC1 [Pictilisib] (partner 1 µM)
Procedure, shortened: as §1

Row | Cell Line | relative viability ([1]; first compound 0.02 µM) | relative viability ([1]; first compound 0.06325 µM) | relative viability ([1]; first compound 0.2 µM) | relative viability ([1]; first compound 0.6325 µM) | relative viability ([1]; first compound 2 µM) | relative viability ([2]; first compound 0.02 µM) | relative viability ([2]; first compound 0.06325 µM) | relative viability ([2]; first compound 0.2 µM) | relative viability ([2]; first compound 0.6325 µM) | relative viability ([2]; first compound 2 µM) | relative viability ([3]; first compound 0.02 µM) | relative viability ([3]; first compound 0.06325 µM) | relative viability ([3]; first compound 0.6325 µM) | relative viability ([3]; first compound 2 µM) | relative viability ([4]; first compound 0.02 µM) | relative viability ([4]; first compound 0.06325 µM) | relative viability ([4]; first compound 0.2 µM) | relative viability ([4]; first compound 0.6325 µM) | relative viability ([4]; first compound 2 µM) | relative viability ([3]; first compound 0.2 µM)
1 | H3255 | 0.567 | 0.671 | 0.607 | 0.651 | 0.529 | 0.696 | 0.756 | 0.776 | 0.891 | 0.707 | 0.884 | 1.02 | 1.01 | 1.03 | 0.465 | 0.495 | 0.519 | 0.514 | 0.495 | 
2 | LCLC-97TM1 | 0.232 | 0.225 | 0.238 | 0.212 | 0.223 | 0.24 | 0.351 |  | 0.276 | 0.286 | 0.176 | 0.197 | 0.213 | 0.191 | 0.199 | 0.261 |  | 0.213 | 0.233 | 
3 | NCI-H460 | 0.457 | 0.54 | 0.566 | 0.527 | 0.563 | 0.454 | 0.567 | 0.615 | 0.661 | 0.258 | 0.662 |  | 0.927 | 0.699 | 0.323 | 0.19 | 0.441 | 0.366 | 0.304 | 0.95
4 | HCC-366 | 0.314 | 0.361 | 0.365 | 0.313 | 0.408 | 0.353 | 0.466 | 0.656 | 0.528 | 0.431 | 0.512 | 0.619 | 0.628 | 0.571 | 0.0687 | 0.181 | 0.128 | 0.175 | 0.137 | 0.606
5 | A-427 | 0.547 | 0.591 | 0.57 | 0.539 | 0.625 | 1.06 | 1.06 | 1.15 | 1.08 | 1.05 | 1.1 | 1.18 | 1.15 | 1.12 | 0.702 | 0.8 | 0.926 | 0.748 | 0.73 | 1.12
6 | HCC-15 | 0.639 | 0.829 | 0.708 | 0.671 | 0.677 | 0.831 |  | 1.01 | 0.872 | 0.94 | 0.803 | 0.838 | 0.902 | 0.86 | 0.68 | 0.791 | 0.888 | 0.749 | 0.774 | 0.928
7 | NCI-H2347 | 0.562 | 0.617 | 0.642 | 0.66 |  | 0.996 | 1.03 | 1.13 | 1.09 | 0.947 | 0.93 | 0.991 | 0.991 | 0.978 | 0.554 | 0.91 | 0.691 | 0.705 | 0.912 | 1.11
8 | NCI-H650 | 0.341 | 0.291 | 0.321 | 0.325 | 0.321 | 0.891 | 0.608 | 1.25 | 1.14 | 1.16 | 0.9 | 0.912 |  | 1.08 | 0.828 | 1.09 | 0.932 | 0.858 | 0.843 | 1.09
9 | NCI-H1395 | 0.712 | 0.659 | 0.721 | 0.72 | 0.639 | 0.995 | 1.14 | 1.72 | 1.31 | 1.05 | 0.975 | 1.2 | 1.19 |  | 0.609 | 0.646 | 0.662 | 0.614 | 0.594 | 1.37
10 | NCI-H358 | 0.236 | 0.217 | 0.22 | 0.197 | 0.192 | 0.902 | 0.803 |  | 0.762 | 0.451 | 0.718 | 0.685 | 0.592 | 0.447 | 0.369 | 0.38 | 0.34 | 0.359 | 0.261 | 0.863
11 | NCI-H2087 | 0.273 | 0.274 | 0.315 | 0.245 | 0.264 | 0.904 | 1.06 | 1.11 | 1.23 | 1.01 |  | 1.01 |  | 0.889 | 0.957 | 0.831 | 1.04 | 0.879 | 0.799 | 0.938
